Tested on: chronic constriction nerve injury, peripheral mononeuropathy
Test: Chronic constriction nerve injury model of neuropathic pain (Von Frey filaments, Hargreaves Plantar Device)
Assay type: in vivo
Conditions: rats
Excerpt: A peripheral mononeuropathy was induced in the right hind limb of rats following a chronic constriction nerve injury, and the development of mechanical allodynia and thermal hyperalgesia was monitored using established behavioural tests (Von Frey filaments and the Hargreaves Plantar Device, respectively).

For `Cc1ccc(Sc2ccccc2C2CCNCC2)cc1` [Compound I, 4-[2-(4-methylphenylsulfanyl)phenyl]piperidine], the “paw withdrawal threshold, Von Frey filaments (mechanical allodynia)” value (subcutaneous 1.9, 4.8 and 7.9 mg/kg in 10% hydroxypropyl-betacyclodextrin, right hind paw) was “did not increase the paw withdrawal threshold” and the “paw withdrawal latency, thermal hyperalgesia (Hargreaves Plantar Device)” value (subcutaneous 4.8 and 7.9 mg/kg) was “significant increases in paw withdrawal latency”.
